Results as given in patent US6342508B1, “N-hydroxy-2-(Alkyl,Aryl or Heteroaryl sulfanyl, sulfinyl or sulfonyl) 3-substituted alkyl, aryl or heteroarylamides as matrix metalloproteinase inhibitors” (American Cyanamid Company, priority 1997, dated 2002).

Tests used:
Type in all cases: biochemical
[1] = molecular target: T1, MMP 9 (Homo sapiens, UniProt P14780); test: In Vitro Gelatinase Assay (human neutrophil gelatinase B, thiopeptide substrate/DTNB)
T1 construct: from tissue; host or cells: human neutrophils
Protocol: The assay is based on the cleavage of the thiopeptide substrate ((Ac-Pro-Leu-Gly(2 Mercapto-4 methyl-pentanoyl)-Leu-Gly-OEt), Bachem Bioscience) by the enzyme, gelatinase, releasing the substrate product which reacts colorimetrically with DTNB ((5,5′-dithio-bis(2-nitro-benzoic acid)). The enzyne activity is measured by the rate of the color increase. The thiopeptide substrate is made up fresh as a 20 mM stock in 100% DMSO and the DTNB is dissolved in 100% DMSO as a 100 mM stock and stored in dark at room temperature. Both the substrate and DTNB are diluted together to 1 mM with substrate buffer (50 mM HEPES pH 7.5, 5 mM CaCl2) before use.
The increase in OD405 is plotted and the slope of the line is calculated which represents the reaction rate.
The mean (x±sem) of the control rate is calculated and compared for statistical significance (p<0.05) with drug-treated rates using Dunnett's multiple comparison test.

[2] = molecular target: MMP 13 (Homo sapiens, UniProt P45452); test: MMP 13 inhibition (standard/manual test)
[3] = molecular target: T2, TACE (Homo sapiens, UniProt P78536); test: Procedure for Measuring TACE Inhibition (fluorescent peptidyl substrate); settings: 1 micromolar
T2 construct: purchased Immunex

[4] = molecular target: T3, MMP 1 (Homo sapiens, UniProt P03956); test: In Vitro Collagenase Assay (human recombinant fibroblast collagenase, fluorogenic peptide substrate)
T3 construct: human recombinant fibroblast collagenase (truncated mw=18,828, WAR, Radnor)
T3 sequence (P03956 100-269 limits assumed): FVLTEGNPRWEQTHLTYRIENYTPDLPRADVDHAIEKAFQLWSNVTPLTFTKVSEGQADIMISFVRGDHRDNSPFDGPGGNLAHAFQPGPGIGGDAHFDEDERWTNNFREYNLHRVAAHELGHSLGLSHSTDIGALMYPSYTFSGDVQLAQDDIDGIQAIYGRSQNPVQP
Protocol: The assay is based on the cleavage of a peptide substrate ((Dnp-Pro-Cha-Gly-Cys(Me)-His-Ala-Lys(NMa)-NH2), Peptide International Inc.) by collagenase releasing the fluorescent NMa group which is quantitated on the fluorometer. Dnp quenches the NMa fluorescence in the intact substrate. […] Substrate is dissolved in methanol and stored frozen in 1 mM aliquots. […] For the assay, substrate is dissolved in HCBC buffer to a final concentration of 10 μM and collagenase to a final concentration of 5 nM. Compounds are dissolved in methanol, DMSO, or HCBC. The methanol and DMSO are diluted in HCBC to <1.0%. Compounds are added to the 96 well plate containing enzyme and the reaction is started by the addition of substrate.
The slope of the line is calculated and represents the reaction rate.
The mean (x±sem) of the control rate is calculated and compared for statistical significance (p<0.05) with drug-related rates using Dunnett's multiple comparison test.

T1 sequence (P14780 94-707): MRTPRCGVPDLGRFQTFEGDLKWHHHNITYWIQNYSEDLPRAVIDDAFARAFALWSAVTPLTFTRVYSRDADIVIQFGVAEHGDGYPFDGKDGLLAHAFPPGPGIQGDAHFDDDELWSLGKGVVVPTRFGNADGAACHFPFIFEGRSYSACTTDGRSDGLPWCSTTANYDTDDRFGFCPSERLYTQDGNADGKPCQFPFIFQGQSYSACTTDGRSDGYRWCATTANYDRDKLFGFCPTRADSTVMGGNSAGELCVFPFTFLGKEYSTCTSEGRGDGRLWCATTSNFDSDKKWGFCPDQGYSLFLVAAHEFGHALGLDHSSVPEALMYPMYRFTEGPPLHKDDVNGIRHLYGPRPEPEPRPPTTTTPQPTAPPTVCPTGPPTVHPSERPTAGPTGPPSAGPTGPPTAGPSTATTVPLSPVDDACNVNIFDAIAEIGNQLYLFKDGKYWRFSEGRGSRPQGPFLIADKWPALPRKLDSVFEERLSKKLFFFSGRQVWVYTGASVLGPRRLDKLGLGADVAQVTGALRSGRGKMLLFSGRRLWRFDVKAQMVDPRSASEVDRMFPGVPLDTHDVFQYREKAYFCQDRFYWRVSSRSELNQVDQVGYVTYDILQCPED
T2 sequence (P78536 215-824): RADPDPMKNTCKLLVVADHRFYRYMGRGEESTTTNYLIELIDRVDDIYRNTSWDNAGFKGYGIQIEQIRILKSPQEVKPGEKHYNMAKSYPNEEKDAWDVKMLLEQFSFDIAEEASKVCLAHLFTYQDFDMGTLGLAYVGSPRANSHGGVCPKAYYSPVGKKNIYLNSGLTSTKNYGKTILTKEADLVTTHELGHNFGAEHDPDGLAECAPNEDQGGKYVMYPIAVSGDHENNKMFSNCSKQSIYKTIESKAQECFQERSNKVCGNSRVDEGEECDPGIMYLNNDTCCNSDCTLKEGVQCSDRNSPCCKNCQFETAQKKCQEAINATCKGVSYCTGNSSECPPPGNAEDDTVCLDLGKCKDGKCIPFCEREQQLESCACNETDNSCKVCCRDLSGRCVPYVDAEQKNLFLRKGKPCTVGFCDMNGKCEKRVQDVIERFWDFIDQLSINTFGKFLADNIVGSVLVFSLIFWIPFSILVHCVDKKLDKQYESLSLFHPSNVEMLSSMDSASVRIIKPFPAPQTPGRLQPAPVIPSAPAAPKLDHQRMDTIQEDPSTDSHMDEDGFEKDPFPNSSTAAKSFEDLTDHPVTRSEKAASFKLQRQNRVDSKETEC

| MMP 9 % inhibition at 1 micromolar [1] | MMP 13 % inhibition at 1 micromolar [2] | TACE % inhibition at 1 micromolar [3] | MMP 1 % inhibition at 1 micromolar [4] | SMILES | IC50 ([1]; read-out: MMP 9 IC 50) | IC50 ([2]; read-out: MMP 13 IC 50) | IC50 ([4]; read-out: MMP 1 IC 50) |
| --- | --- | --- | --- | --- | --- | --- | --- |
| 34.7% | 55.5% | 46.6% | 66.1% | Cc1occc1S(=O)(=O)C(C)(Cc1ccccc1)C(=O)NO (stereo not shown) [Example 43, 2-Methyl-2-(2-methyl-furan-3-sulfonyl)-3-phenyl-propionic acid hydroxamide] |  |  |  |
| 36.9% | 39.5% | 14.9% | 47.1% | Cc1occc1S(=O)(=O)C(C)(Cc1ccc(OCCN2CCCCC2)cc1)C(=O)NO (stereo not shown) [Example 44, 2-Methyl-2-(2-methyl-furan-3-sulfonyl)3-[4-(2-piperidin-1-yl-ethoxy)phenyl]-propionic acid hydroxamide] |  |  |  |
| 79.12% | 84.7% | 1.4% | 78.9% | CCCCCCCCS(=O)(=O)C(Cc1ccc(OCCN2CCCCC2)cc1)C(=O)NO (stereo not shown) [Example 46, 2-(octane-1-sulfonyl)-3-[4-(2-piperidin-yl-ethoxy)-phenyl]propionic acid hydroxamide] |  |  |  |

| SMILES | MMP 9 % inhibition at 1 micromolar [1] | MMP 13 % inhibition at 1 micromolar [2] | TACE % inhibition at 1 micromolar [3] | MMP 1 % inhibition at 1 micromolar [4] | IC50 ([1]; read-out: MMP 9 IC 50) | IC50 ([2]; read-out: MMP 13 IC 50) | IC50 ([4]; read-out: MMP 1 IC 50) |
| --- | --- | --- | --- | --- | --- | --- | --- |
| COc1ccc(S(=O)(=O)C2(C(=O)NO)CCN(CC=C(C)C)CC2)cc1 [Example 89, 4-(4methoxy-benzene-sulfonyl)-1-(3-methyl-but-2-enyl)-piperdine-4-carboxylic acid hydroxamide] |  |  | 49% |  | 38.6 nM | 7 nM | 1390 nM |
